From ChEMBL document CHEMBL1201862, “PubChem BioAssay data set” (2004)
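Growth conditions: 96-well plates. Treatment: test compound, 48 hours, 5 concentrations. Analysis: linear interpolation between bracketing concentrations; unreached endpoints set to highest concentration. GI50 is the concentration that inhibits growth by half.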 Activity calls are given as the source filed them. No stated cut-off is given here; in the data, active = GI50 up to about 1.1 µM and inactive = higher.

What was measured:
Assay in all cases: growth of human tumour cells (NCI), 48 h
[1] = system: A498
[2] = system: ACHN
[3] = system: BT-549
[4] = system: CCRF-CEM
[5] = system: COLO 205
[6] = system: DU-145
[7] = system: HCT-116
[8] = system: K562
[9] = system: MDA-MB-435
[10] = system: MOLT-4
[11] = system: Malme-3M
[12] = system: NCI/ADR-RES
[13] = system: OVCAR-3
[14] = system: OVCAR-8
[15] = system: RPMI-8226
[16] = system: RXF 393
[17] = system: SF-268
[18] = system: SNB-75
[19] = system: HCC 2998

O=CN1CCN(C(=O)c2ccco2)C1=S
GI50 [1]: 16.5 µM (inactive)
GI50 [2]: 10 µM (inactive)
GI50 [3]: 5.5 µM (inactive)
GI50 [4]: 3.7 µM (inactive)
GI50 [5]: 10.1 µM (inactive)
GI50 [6]: 3.08 µM (inactive)
GI50 [7]: 12.2 µM (inactive)
GI50 [8]: 3.25 µM (inactive)
GI50 [9]: 5.13 µM (inactive)
GI50 [10]: 8.24 µM (inactive)
GI50 [11]: 11.3 µM (inactive)
GI50 [12]: 23.4 µM (inactive)
GI50 [13]: 4.39 µM (inactive)
GI50 [14]: 16 µM (inactive)
GI50 [15]: 2.24 µM (inactive)
GI50 [16]: 6.64 µM (inactive)
GI50 [17]: 7.05 µM (inactive)
GI50 [18]: 12.5 µM (inactive)

Clc1ccc(-c2nn3c(COc4cccc(OCc5nnc6sc(-c7ccc(Cl)cc7)nn56)c4)nnc3s2)cc1
GI50 [1]: 15.7 µM (inactive)
GI50 [2]: 22.4 µM (inactive)
GI50 [3]: 30.7 µM (inactive)
GI50 [5]: 29.2 µM (inactive)
GI50 [6]: 25.4 µM (inactive)
GI50 [19]: 32.1 µM (inactive)
GI50 [7]: 18.6 µM (inactive)
GI50 [8]: 24.4 µM (inactive)
GI50 [9]: 19.4 µM (inactive)
GI50 [10]: 14.3 µM (inactive)
GI50 [11]: 19.2 µM (inactive)
GI50 [12]: 36.9 µM (inactive)
GI50 [13]: 6.78 µM (inactive)
GI50 [14]: 28.9 µM (inactive)
GI50 [15]: 22.1 µM (inactive)
GI50 [16]: 16.1 µM (inactive)
GI50 [17]: 21.7 µM (inactive)
GI50 [18]: 23 µM (inactive)

C[n+]1c2ccc(Cl)cc2nc2cc(-c3ccccc3)ccc21
GI50 [2]: 18.9 µM (inactive)
GI50 [3]: 11.1 µM (inactive)
GI50 [4]: 60.7 µM (inactive)
GI50 [5]: 3.58 µM (inactive)
GI50 [6]: 22.5 µM (inactive)
GI50 [19]: 4.95 µM (inactive)
GI50 [7]: 16.7 µM (inactive)
GI50 [8]: 7.13 µM (inactive)
GI50 [9]: 1.77 µM (inactive)
GI50 [10]: 1.61 µM (inactive)
GI50 [11]: 19.4 µM (inactive)
GI50 [12]: 33.2 µM (inactive)
GI50 [13]: 2.03 µM (inactive)
GI50 [14]: 3.67 µM (inactive)
GI50 [15]: 1.93 µM (inactive)
GI50 [16]: 26.1 µM (inactive)
GI50 [17]: 14.7 µM (inactive)
GI50 [18]: 24.7 µM (inactive)

CC(C)[C@@H]1NC(=O)[C@H]2N=C(O[C@@H]2C)[C@@H]2CCCN2C(=O)[C@H](Cc2ccccc2)NC(=O)[C@@H]2CSC(=N2)[C@@H](Cc2ccccc2)NC(=O)[C@@H]2CSC1=N2
GI50 [2]: > 50 µM (inactive)
GI50 [3]: > 50 µM (inactive)
GI50 [4]: 16.3 µM (inactive)
GI50 [5]: 24.7 µM (inactive)
GI50 [6]: > 50 µM (inactive)
GI50 [19]: 21.9 µM (inactive)
GI50 [7]: > 50 µM (inactive)
GI50 [8]: 9.38 µM (inactive)
GI50 [9]: 36.4 µM (inactive)
GI50 [10]: 26.8 µM (inactive)
GI50 [11]: > 50 µM (inactive)
GI50 [12]: > 50 µM (inactive)
GI50 [13]: 47 µM (inactive)
GI50 [14]: > 50 µM (inactive)
GI50 [15]: 9.29 µM (inactive)
GI50 [16]: 39 µM (inactive)
GI50 [17]: > 50 µM (inactive)
GI50 [18]: 0.216 µM (active)

COc1ccc(-c2oc3cc(OC)c(OC)c(OC)c3c(=O)c2OC)cc1OC [HEXAMETHOXYFLAVONE]
GI50 [1]: > 100 µM (inactive)
GI50 [2]: > 100 µM (inactive)
GI50 [3]: > 100 µM (inactive)
GI50 [4]: > 100 µM (inactive)
GI50 [5]: > 100 µM (inactive)
GI50 [6]: > 100 µM (inactive)
GI50 [19]: > 100 µM (inactive)
GI50 [7]: > 100 µM (inactive)
GI50 [8]: > 100 µM (inactive)
GI50 [9]: > 100 µM (inactive)
GI50 [10]: > 100 µM (inactive)
GI50 [11]: > 100 µM (inactive)
GI50 [12]: > 100 µM (inactive)
GI50 [13]: > 100 µM (inactive)
GI50 [14]: > 100 µM (inactive)
GI50 [16]: > 100 µM (inactive)
GI50 [17]: > 100 µM (inactive)
GI50 [18]: > 100 µM (inactive)

COc1ccc(CC2Cc3ccccc3CC(=O)N2)cc1OC (centres undefined)
GI50 [1]: > 100 µM (inactive)
GI50 [2]: > 100 µM (inactive)
GI50 [3]: 37.4 µM (inactive)
GI50 [4]: 28.1 µM (inactive)
GI50 [5]: > 100 µM (inactive)
GI50 [6]: > 100 µM (inactive)
GI50 [19]: > 100 µM (inactive)
GI50 [7]: 98.9 µM (inactive)
GI50 [8]: 44.9 µM (inactive)
GI50 [9]: 55.8 µM (inactive)
GI50 [10]: 24.6 µM (inactive)
GI50 [11]: > 100 µM (inactive)
GI50 [12]: 27.5 µM (inactive)
GI50 [13]: 97.3 µM (inactive)
GI50 [14]: 75 µM (inactive)
GI50 [18]: 48.2 µM (inactive)

Cc1cccc2c(N)c3cccc(C(=O)NCC[N+](C)(C)[O-])c3nc12
GI50 [2]: 2.83 µM (inactive)
GI50 [3]: 15.2 µM (inactive)
GI50 [4]: 2.49 µM (inactive)
GI50 [5]: 9.57 µM (inactive)
GI50 [6]: 3.02 µM (inactive)
GI50 [19]: 10.2 µM (inactive)
GI50 [7]: 13.2 µM (inactive)
GI50 [8]: 3.13 µM (inactive)
GI50 [9]: 16.8 µM (inactive)
GI50 [10]: 0.542 µM (active)
GI50 [11]: 12.7 µM (inactive)
GI50 [12]: 6.21 µM (inactive)
GI50 [13]: 16.1 µM (inactive)
GI50 [14]: 8.61 µM (inactive)
GI50 [15]: 9.44 µM (inactive)
GI50 [16]: 12.6 µM (inactive)
GI50 [17]: 1.96 µM (inactive)
GI50 [18]: 1.32 µM (inactive)
